In US12029751B2, “Therapeutic agent for nervous system disease” (OSAKA UNIVERSITY, priority 2017, dated 2024):

Tested on: Akt-mTOR pathway
Test: Western blot of Akt, 4EBP1 and S6K phosphorylation (mechanism of macrophage induction)
Format: cell-based, mouse
Conditions: IL-4 20 ng/ml + MeCbl 1 mM + RAD001 (200 nM), 30 minutes
Method: The J774A.1 cells (Example 5-1) were seeded on a dish having a diameter of 6 cm. After 4 days, proteins were collected using a cell lysis buffer containing a cocktail of protease inhibitors. The protein concentration was measured by BCA assay. Then, 50 μg of each sample was subjected to SDS-PAGE, and the electrophoresed proteins were transferred to a polyvinylidene difluoride membrane. The membrane was blocked with a blocking buffer for 1 hour, and then the proteins were allowed to react with primary antibodies at 4° C. overnight. The proteins were further allowed to react with a secondary antibody at room temperature for 1 hour and detected using ECL Western Blotting Detection System. To detect the M1 markers iNOS and IL-1β, lipopolysaccharide (LPS) (100 ng/ml) and methylcobalamin were added at 24 hours before collecting the proteins. To detect the M2 markers Arg1 and CD206, IL-4 (20 ng/ml) and methylcobalamin were added at 72 hours before collecting the proteins.
The mechanism of the macrophage induction (Example 5) by methylcobalamin was analyzed. Specifically, the analysis was carried out as follows. At 30 minutes after IL-4 and methylcobalamin (100 nM and 1 mM) were added, activation of Akt, 4EBP1, and S6K in the Akt-mTOR pathway (one of the major signaling pathways that induce M2 gene expression) was evaluated by Western blot. In the pathway, Akt phosphorylation occurs in response to an upstream signal, and 4EBP1 phosphorylation and S6K phosphorylation further occur through mTORC1 in the downstream. The S6K phosphorylation provides a negative feedback to the upstream of the signaling pathway. Western blot was performed as in Example 5-2, except that IL-4 (20 ng/ml), methylcobalamin, and RAD001 (200 nM) were added at 30 minutes before the proteins were collected, and the primary antibodies for detection were changed.

For `CO[C@H]1C[C@@H]2CC[C@@H](C)[C@@](O)(O2)C(=O)C(=O)N2CCCC[C@H]2C(=O)O[C@H]([C@H](C)C[C@@H]2CC[C@@H](OCCO)[C@H](OC)C2)CC(=O)[C@H](C)/C=C(\C)[C@@H](O)[C@@H](OC)C(=O)[C@H](C)C[C@H](C)/C=C/C=C/C=C/1C` [RAD001], the p-4EBP1/4EBP1 was “suppressed”, the p-Akt/Akt was “rescued” and the p-S6K/S6K was “suppressed”.
